From patent publication US20230117034A1, “PYRAZOLOTRIAZINES” (Bayer Aktiengesellschaft, priority 2019, published 2023)

System: BRCA1 mRNA expression in CAL-120 cells
Experiment: qRT-PCR assay: BRCA1 mRNA expression in CAL-120
Assay type: cell-based
Conditions: Homo sapiens; Inhibition of BRCA1 mRNA expression in CAL-120 cells; median; read-out: RTqPCR-CAL-120, IC50, BRCA1 (median)
Summary of the method: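 First, cells are plated at 200,000 per well and allowed 24 h. Second, test substances are applied continuously for a further 24 h. Finally, RNA is isolated, 600 ng is converted to cDNA, and qPCR quantifies the transcript relative to GAPDH.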

**Q.** `Fc1ccc(-c2nnc(CNc3nc(N4CCOCC4)nc4c(Br)cnn34)[nH]2)cc1` [Example 29, 8-bromo-N-{[5-(4-fluorophenyl)-4H-1,2,4-triazol-3-yl]methyl}-2-(morpholin-4-yl)pyrazolo[1,5-a][1,3,5]triazin-4-amine] was tested. Which IC50 did it give?
**A.** The IC50 was 84.1 nM.

**Q.** For `Cc1ccnc2[nH]c(CNc3nc(N4CCOCC4)nc4c(C(C)C)cnn34)nc12` [Example 28, N-[(7-methyl-3H-imidazo[4,5-b]pyridin-2-yl)methyl]-2-(morpholin-4-yl)-8-(propan-2-yl)pyrazolo[1,5-a][1,3,5]triazin-4-amine], which IC50 is on record?
**A.** Its IC50 is 30.6 nM.

**Q.** How did the IC50 turn out when `CC(C)c1cnn2c(NCc3ncc(-c4ccccc4)[nH]3)nc(N3CCN(C)CC3)nc12` [Example 31, 2-(4-methylpiperazin-1-yl)-N-[(5-phenyl-1H-imidazol-2-yl)methyl]-8-(propan-2-yl)pyrazolo[1,5-a][1,3,5]triazin-4-amine] was run?
**A.** The IC50 was 54.9 nM.
